Measurements reported in patent US6511817B1, “Methods and device for in vitro detection and characterization of psychoactives using analysis of repetitive electrical activity in a neuronal sample” (Matsushita Electric Industrial Co., Ltd., priority 1999, dated 2003).
“Also recorded” adds a separate entry of the source.

Tests used:
Assay type in all cases: cell-based, Sprague-Dawley rat
[1] = system: hippocampal slice; test: Effect of bath-applied drugs on carbachol-induced beta waves in hippocampal slices on a 64-electrode MED array, FFT analysis; conditions: for power within the 20 Hz band / shift in the peak: 10 μM Ampakine after carbachol
Excerpt: (§1) The general procedures for the preparation of the Multi-Electrode Dish (Matsushita Electric Industrial Co. Ltd., Osaka, Japan: “the MED probe”) were described above. Procedures for the MED probe preparation are also described by Oka et al. […]. The device has an array of 64 planar microelectrodes, each having a size of 50×50 μm, arranged in an 8 by 8 pattern. Probes come with two types of interpolar distance, 150 μm (Panasonic: MED-P515AP) and 450 μm (Panasonic: MED-P545AP).
(§2) To provide sufficient adhesion of the neuronal sample slice to the MED surface, the surface of the MED probe was treated with 0.1% polyethylenimine (Sigma: P-3143) in 25 mM borate buffer, pH 8.4, for 8 hours at room temperature. The probe surface was rinsed 3 times with sterile distilled water. The probe (chamber) was then filled with DMEM/F-12 mixed medium, containing 10% fetal bovine serum (GIBCO: 16141-079) and 10% horse serum (GIBCO: 16050-122), for at least 1 hour at 37° C. DMEM/F-12 mixed medium is a 1:1 mixture of Dulbecco's Modified Eagle's Medium and Ham's F-12 (GIBCO: D/F-12 medium, 12400-024), supplemented with N2 supplement (GIBCO: 17502-014) and hydrocortisone (20 nM, Sigma, H0888).
(§3) A 17-24 day old Sprague-Dawley rat was sacrificed by decapitation after anesthesia using halothane (2-Bromo-2 chloro-1,1,1 -trifluoroethane, Sigma: B4388), and the whole brain was removed carefully. The brain was immediately soaked in ice-cold, oxygenated preparation buffer of the following composition (in mM): 124 NaCl, 26 NaHCO3, 10 glucose, 3 KCl, 1.25 NaH2PO4, 2 CaCl2, 2 MgSO4, for approximately 2 minutes. Appropriate portions of the brain were trimmed and placed on the ice-cold stage of a vibrating tissue slicer (Leica: VT-1000S). The stage was immediately filled with both oxygenated and frozen preparation buffers. The thickness of each tissue slice was 350 μm. Each slice was gently taken off the blade by a painting brush, trimmed, and immediately soaked in the oxygenated preparation buffer for 1 hour at room temperature. Then a slice was placed on the center of the MED probe. The slice was positioned to cover the 8×8 array. After positioning the slice, the MED probe was immediately placed in a box filled with 95% O^2 and 5% CO^2 and allowed to recover at 32° C. for 1 hour.
(§4) During electrophysiological recording, the slices on the MED probe were placed in a small CO2 incubator (Asahi Lifescience: model 4020) at 32° C. After recovery of the slice on the MED probe, the medium was replaced with DMEM/F-12 mixed medium without serum. The slices were on the interface, and contacted with a moisturized 95% O2 and 5% CO2 gas mixture. In this condition, the responses were recorded for more than 2 hours.
(§5) Drugs were purchased from RBI (diazepam, bicuculline, CNQX, 2-hydroxysaclofen) or Sigma (all other compounds). CX614 and CX691 were produced by Cortex Pharmaceuticals Inc. (Irvine, Calif.). All drugs were bath applied at known concentrations and were prepared daily from frozen aliquots.
(§6) Spontaneous and evoked field potentials at all 64 sites were recorded simultaneously with the multi-channel recording system (Matsushita Electric Industrial Co. Ltd, the “MED64 system”) at a 20 kHz sampling rate. In the case of the evoked response, one of the planar microelectrodes out of the 64 available was used for cathode of stimulating. Bipolar constant current pulses (10 to 50 μA, 0.1 msec) were produced by the data acquisition software through the isolator. The stimulating microelectrode was selected by the 64 switch-box. The measured field potentials were then subjected to analysis using the CSD analysis (Nicholson et al) discussed below.

[2] = system: hippocampal slice; test: Carbachol induction of rhythmic activity in hippocampus (fields CA1 and CA3), MED array, FFT analysis; conditions: for group mean dominant CA1 frequency / group mean dominant CA3 frequency: mean ± s.d.
Excerpt: as §1, §2, §3, §4, §5, §6

[3] = system: entorhinal cortex; test: Carbachol-induced 40 Hz rhythm in retrohippocampal cortex, MED broad array
Method: as §3, with “Then a slice was placed on the center of the MED probe. The slice was positioned to cover the 8×8 array. After positioning the slice, the MED probe was immediately placed in a box filled with 95% O^2 and 5% CO^2 and allowed to recover at 32° C. for 1 hour.” left out
During electrophysiological recording, the slices on the MED probe were placed in a small CO2 incubator (Asahi Lifescience: model 4020) at 32° C. […] In this condition, the responses were recorded for more than 2 hours.
Spontaneous and evoked field potentials at all 64 sites were recorded simultaneously with the multi-channel recording system (Matsushita Electric Industrial Co. Ltd, the “MED64 system”) at a 20 kHz sampling rate. […] The measured field potentials were then subjected to analysis using the CSD analysis (Nicholson et al) discussed below. […]

[4] = diazepam plus carbachol, FIG. 13C

N#Cc1cc2[nH]c(=O)c(=O)[nH]c2cc1[N+](=O)[O-] [CNQX]
amplitude of carbachol-induced waves ([1]; 20 μM): significantly diminished and/or eliminated
effect on carbachol-induced high frequency rhythms ([1]; 20 μM): greatly reduced
power of carbachol-induced waves ([1]; 20 μM): significant decrease
synchronized activity in carbachol-treated sample ([1]; 20 μM): very rapid loss

O=C1c2cc3c(cc2OC2CCCN12)OCCO3 (centres unmarked) [CX614]
power within the 20 Hz band [1]: significant increase
shift in the peak [1]: 10 Hz

O=C(c1ccc2nonc2c1)N1CCCCC1 [CX691]
power within the 20 Hz band [1]: significant increase
shift in the peak [1]: 10 Hz

O=[N+]([O-])c1cc2nc(O)c(O)nc2cc1[N+](=O)[O-] [DNQX]
amplitude of carbachol-induced waves ([1]; 20 μM): significantly diminished and/or eliminated
power of carbachol-induced waves ([1]; 20 μM): significant decrease
synchronized activity in carbachol-treated sample ([1]; 20 μM): very rapid loss

NS(=O)(=O)c1cccc2c1c([N+](=O)[O-])cc1nc(O)c(O)nc12 [NBQX]
amplitude of carbachol-induced waves ([1]; 10 μM): significantly diminished and/or eliminated
power of carbachol-induced waves ([1]; 10 μM): significant decrease
synchronized activity in carbachol-treated sample ([1]; 10 μM): very rapid loss

CN1[C@@H]2CC[C@H]1C[C@@H](OC(=O)C(CO)c1ccccc1)C2 (some centres unmarked) [atropine]
effect on carbachol-induced high frequency rhythms ([1]; 20 μM): completely eliminated

C[N+](C)(C)CCOC(N)=O [carbachol, carbyl choline chloride]
slices with rhythmic activity in CA1 and CA3 close to or within the beta band (10-30 Hz) ([2]; after infusion of carbachol): 41 of 55
group mean dominant CA1 frequency ([2]; all slices): 18.8±5.7 Hz
group mean dominant CA3 frequency ([2]; all slices): 16.4±5.7 Hz
group mean dominant CA1 frequency ([2]; beta instances alone): 19.2±4.8 Hz
group mean dominant CA3 frequency ([2]; beta instances alone): 17.3±4.2 Hz
peak of rhythmic activity in apical dendrites of hippocampal pyramidal cell fields ([2]; carbachol 50 μM): ~20 Hz
peak of the power spectrum ([2]; example slice of FIG. 6B): 20 Hz
frequency of oscillations in deep layers of the medial entorhinal cortex ([3]; carbachol 50 μM): 40 Hz
slices with forty Hz activity in the deep layers of the entorhinal cortex ([3]; slices with appropriately positioned electrodes): each of the 15 slices

CN1C(=O)CN=C(c2ccccc2)c2cc(Cl)ccc21 [diazepam]
amplitude of beta oscillations ([1]; 3 μM diazepam, 20 μM carbachol): markedly enhanced
change in the frequency of the waves ([1]; 3 μM diazepam, 20 μM carbachol): not accompanied by a significant change; also recorded: without much shift
increase in power within the 20 Hz band over carbachol alone [1, 4]: nearly threefold increase
peak added at a higher (gamma) frequency [1, 4]: approximately 40 Hz

picrotoxin
effect on carbachol-induced beta waves ([1]; 50 μM picrotoxin): marked reduction
